Assay results taken from patent US12435294B2, “Prevention of the oxidation of perfumery raw materials and food raw materials” (Firmenich SA, priority 2018, dated 2025).
Values joined by “and” are separate entries in the source; they are usually repeats but may differ in a detail not shown here. Equal entries are not always repeated. Where two headings read alike, the source gives them in different places. Values belong to the compound of their own block, whether it stands above or below them.

What was measured:
[1] = Solubility / miscibility observed on addition to the treated material
[2] = POV reduction in model citrus perfume (mixed citrus oil in 90/10 v/v ethanol/water); conditions: for Reduction in POV (%): vs untreated; for reduction in POV relative to untreated material: 7 days after addition, 1.0% w/v in model perfume
[3] = HPLC chemiluminescence peak area of oxidized limonene; conditions: oxidized limonene 100 μL + 2 mg HDPA
Experimental: Preparation of the Treated Sample: Oxidized limonene (100 μL, with a starting POV of approximately 38 mmol/L) was treated with 2 mg of HDPA (approximately 2 eq of HP). The treated & un-treated limonene samples were allowed to stand on the benchtop under ambient laboratory light at room temperature, and HPLC Chemiluminescence measurements were taken periodically. The same quantity of untreated limonene was prepared in a 2nd vial and monitored similarly to the treated one for comparison.

[4] = POV reduction in sunflower oil; conditions: for POV of treated oil / % Reduction in POV: 0.3358 g in 15 mL sunflower oil
[5] = POV reduction in autoxidized limonene
Experimental: The vial was shaken once and allowed to stand for 50 minutes. No further treatment was done prior to the POV testing. […] POV before treatment was 65.97 mEq./L, and POV after treatment was 17.21 mEq./L. […] The vial was shaken once and allowed to stand, while being monitored for POV value as a function of time. […] The vial was shaken once and allowed to stand, while being monitored for POV value as a function of time.

[6] = model citrus perfume, DMESi 0.3247 g, 0 d since addition
[7] = model citrus perfume, DMESi 0.3247 g, 0.08 d since addition
[8] = model citrus perfume, DMESi 0.3247 g, 1.29 d since addition
[9] = model citrus perfume, DMESi 0.3247 g, 5 d since addition
[10] = model citrus perfume, DMESi 0.3247 g, 14 d since addition
[11] = 1 day, approximately 150 mg (1.0% w/v) in 15 mL model perfume (Examples 14, 20, 21)
[12] = 2 days, 1.0% w/v in 15 mL model perfume (Examples 14, 20, 21)
[13] = 4 days, 1.0% w/v in 15 mL model perfume (Examples 14, 20, 21)
[14] = 7 days, 1.0% w/v in 15 mL model perfume (Examples 14, 20, 21)
[15] = 40 min since addition, 200 mg in 20 mL autoxidized limonene
[16] = 150 min since addition, 200 mg in 20 mL autoxidized limonene
[17] = 190 min since addition, 200 mg in 20 mL autoxidized limonene
[18] = 2880 min (48 hrs) since addition, 200 mg in 20 mL autoxidized limonene
[19] = 3 min since addition, 250 μL in 20 mL autoxidized limonene
[20] = 20 min since addition, 250 μL in 20 mL autoxidized limonene
[21] = 35 min since addition, 250 μL in 20 mL autoxidized limonene
[22] = 44 min since addition, 250 μL in 20 mL autoxidized limonene
[23] = 66 min since addition, 250 μL in 20 mL autoxidized limonene

solubility / miscibility in model citrus perfume (in words) ([1]; on addition to hydroalcoholic model citrus perfume): miscible with the perfume
Compound: C[SiH](C)O[Si](C)(C)C [PMDSi, Pentamethyldisiloxane]

Compound: CC[SiH](C)C [DMESi, Dimethylethylsilane]
POV (mmol/L) of treated [2, 6]: 13.2 mmol/L | Reduction in POV (%) [2, 6]: 0.00% | POV (mmol/L) of treated [2, 7]: 9.29 mmol/L | Reduction in POV (%) [2, 7]: 29.62% | POV (mmol/L) of treated [2, 8]: 9.32 mmol/L | Reduction in POV (%) [2, 8]: 33.43% | POV (mmol/L) of treated [2, 9]: 10.53 mmol/L | Reduction in POV (%) [2, 9]: 30.03% | POV (mmol/L) of treated [2, 10]: 13.65 mmol/L | Reduction in POV (%) [2, 10]: 24.38%

Compound: CC1=C(C(=O)N(C)C)CC(C(=O)N(C)C)=C(C)N1 [HDPA, N(3),N(3),N(5),N(5),2,6-Hexamethyl-1,4-Dihydro-3,5-Pyridinedicarboxamide]
Peak Area Treated ([3]; treatment time 1 day): 12723 | Peak Area Treated ([3]; treatment time 6 days): 12128 | Peak Area Treated ([3]; treatment time 13 days): 10978 | Peak Area Treated ([3]; treatment time 20 days): 17089

Compound: COC(=O)[C@H](CS)NC(C)=O [N-acetylcysteine methyl ester]
% POV Reduction [2]: 100% | POV after Treatment [2]: 0.00 mmol/L

Compound: O=C(O)C(=O)c1ccco1 [α-Oxo-2-furanacetic acid, α-oxo-2-furanacetic acid]
solubility in mixed citrus oil (in words) ([1]; on addition to mixed citrus oil): The majority of the added α-oxo-2-furanacetic acid did not dissolve

Compound: CCCCCCCCCCN(C)C.O=C(O)C(=O)c1ccco1 [FAA-DiMeC10A]
POV of Treated Perfume [2, 11]: 5.06 mmol/L | POV of Treated Perfume [2, 12]: 4.89 mmol/L | POV of Treated Perfume [2, 13]: 4.68 mmol/L | reduction in POV relative to untreated material [2]: 40.0% | POV of Treated Perfume [2, 14]: 4.28 mmol/L | POV of treated oil ([4]; 85 minutes since addition): 5.16 mmol/L | % Reduction in POV ([4]; 85 minutes): 68.8% | % Reduction in POV ([4]; 140 minutes): 82.1% | POV of treated oil ([4]; 140 minutes): 2.97 mmol/L | % Reduction in POV ([4]; 1320 mins (22 hrs)): 97.4% | POV of treated oil ([4]; 1320 mins (22 hrs)): 0.43 mmol/L | % Reduction in POV ([4]; 23 days): 100% | POV of treated oil ([4]; 23 days, indistinguishable from BLANK): 0.00 mmol/L

Compound: L-Ascorbic acid 2-phosphate sesqui-magnesium salt hydrate [Vc-PSeMg]
POV (mmol/L) of treated ([2]; hydrate): 12.4 mmol/L and 12.32 mmol/L and 12.66 mmol/L and 12.28 mmol/L and 13.26 mmol/L and 15.25 mmol/L and 20.2 mmol/L

Compound: CCOC(=O)[C@@H](N)CS.Cl [L-Cysteine ethyl ester hydrochloride]
% POV Reduction ([2]; approximately 0.15 g in 15 mL model perfume, 89 minutes after addition): 100% | POV after Treatment ([2]; approximately 0.15 g in 15 mL model perfume, 89 minutes after addition, untreated 5.55 mmol/L): 0.00 mmol/L

Compound: O=C(O)C(=O)c1ccccc1.O=C1NCCN1CCO [PhGA-HEI]
POV of Treated Perfume [2, 11]: 3.51 mmol/L | POV of Treated Perfume [2, 12]: 3.18 mmol/L | POV of Treated Perfume [2, 13]: 3.06 mmol/L | reduction in POV relative to untreated material [2]: 58.8% | POV of Treated Perfume [2, 14]: 2.94 mmol/L

Compound: O=C(O)C(=O)c1ccccc1 [phenylglyoxylic acid]
POV [5, 15]: 37.035 mEq/L | POV reduction [5, 15]: 17.3% | POV [5, 16]: 34.086 mEq/L | POV reduction [5, 16]: 23.9% | POV [5, 17]: 29.963 mEq/L | POV reduction [5, 17]: 33.1% | POV [5, 18]: 17.265 mEq/L | POV reduction [5, 18]: 61.5% | solubility in autoxidized limonene (in words) ([1]; 200 mg in 20 mL): dissolved

Compound: N[C@@H](CCC(=O)N[C@@H](CS)C(=O)NCC(=O)O)C(=O)O [glutathione]
% POV Reduction ([2]; approximately 0.15 g in 15 mL model perfume, 3 days after addition): 100% | POV after Treatment ([2]; approximately 0.15 g in 15 mL model perfume, 3 days after addition, untreated 5.55 mmol/L): 0.00 mmol/L

Compound: 2-Phospho-L-ascorbic acid trisodium salt [Vc-PTNa]
POV (mmol/L) of treated ([2]; trisodium salt): 12.4 mmol/L and 11.7 mmol/L and 11.57 mmol/L and 10.15 mmol/L and 8.7 mmol/L and 9.22 mmol/L and 9.49 mmol/L

Compound: CN(C)CCO.CN(C)CCO.O=C(O)CCC(=O)C(=O)O [AKG DiDeanol]
POV of Treated Perfume ([2]; 60 min, approximately 200 mg (1.0% w/v) in 20 mL model perfume (Example 9)): 5.95 mmol/L | POV of Treated Perfume ([2]; 75 min, 1.0% w/v in 20 mL model perfume (Example 9)): 5.66 mmol/L | POV of Treated Perfume ([2]; 115 min, 1.0% w/v in 20 mL model perfume (Example 9)): 4.96 mmol/L | POV of Treated Perfume ([2]; 195 min, 1.0% w/v in 20 mL model perfume (Example 9)): 3.20 mmol/L | POV of Treated Perfume ([2]; 210 min, 1.0% w/v in 20 mL model perfume (Example 9)): 3.08 mmol/L | POV of Treated Perfume ([2]; 300 min (5 hours), 1.0% w/v in 20 mL model perfume (Example 9)): 2.31 mmol/L | POV of Treated Perfume ([2]; 370 min, 1.0% w/v in 20 mL model perfume (Example 9)): 1.73 mmol/L | POV of Treated Perfume ([2]; 380 min, 1.0% w/v in 20 mL model perfume (Example 9)): 1.72 mmol/L | POV of Treated Perfume ([2]; […] (24 hours), 1.0% w/v in 20 mL model perfume (Example 9), indistinguishable from blank): 0.0 mmol/L

Compound: CCC(=O)C(=O)O [2-oxobutyric acid]
POV [5, 19]: 43.680 mEq/L | POV reduction [5, 19]: 34.1% | POV [5, 20]: 22.140 mEq/L | POV reduction [5, 20]: 66.6% | POV [5, 21]: 22.681 mEq/L | POV reduction [5, 21]: 65.8% | POV [5, 22]: 19.968 mEq/L | POV reduction [5, 22]: 69.9% | POV [5, 23]: 21.406 mEq/L | POV reduction [5, 23]: 67.7% | measured POV ([5]; additional 500 μL added (after 250 μL), additional 24 hours, 20 mL autoxidized limonene): 8.577 mEq./L | total reduction ([5]; additional 500 μL added, additional 24 hours): 87.1%

Compound: O=CC(=O)O [Glyoxylic Acid]
POV after Treatment ([2]; model citrus perfume, 3 days after addition of treating compound): 3.00 mmol/L | % POV Reduction ([2]; model citrus perfume, 3 days after addition of treating compound, vs untreated sample): 54.6% | POV after Treatment ([2]; model citrus perfume, 10 days after addition of treating compound): 1.61 mmol/L | % POV Reduction ([2]; model citrus perfume, 10 days after addition of treating compound, vs untreated sample): 80.8%

Compound: CCCC(=O)C(=O)O [2-oxovaleric acid]
reduction in POV ([5]; 100 μL in 10 mL autoxidized limonene, 50 minutes, vs 65.97 mEq./L before): approximately 74% | POV after Treatment ([5]; 100 μL in 10 mL autoxidized limonene, stood 50 minutes): 17.21 mEq./L | POV ([4]; 30 minutes since addition, 250 μL in 25 mL sunflower oil): 7.38 mmol/L | POV reduction ([4]; 30 minutes, 250 μL in 25 mL sunflower oil, vs most recent untreated POV): 16.2% | POV ([4]; 50 minutes since addition, 250 μL in 25 mL sunflower oil): 7.84 mmol/L | POV reduction ([4]; 50 minutes, 250 μL in 25 mL sunflower oil, vs most recent untreated POV): 11.0% | POV, averaged value (in parentheses) ([4]; 23 hours since addition, 250 μL in 25 mL sunflower oil): 4.81 mmol/L | POV ([4]; 23 hours since addition, 250 μL in 25 mL sunflower oil, single measurements): 4.95 mmol/L and 4.67 mmol/L | POV reduction ([4]; 23 hours, 250 μL in 25 mL sunflower oil, vs most recent untreated POV): 45.4% | POV, averaged value (in parentheses) ([4]; 46 hours since addition, 250 μL in 25 mL sunflower oil): 5.22 mmol/L | POV ([4]; 46 hours since addition, 250 μL in 25 mL sunflower oil, single measurements): 5.34 mmol/L and 5.10 mmol/L | POV reduction ([4]; 46 hours, 250 μL in 25 mL sunflower oil, vs most recent untreated POV): 53.0% | POV, averaged value (in parentheses) ([4]; 15 days since addition, 250 μL in 25 mL sunflower oil): 2.10 mmol/L | POV ([4]; 15 days since addition, 250 μL in 25 mL sunflower oil, single measurements): 2.27 mmol/L and 2.05 mmol/L and 1.99 mmol/L | POV reduction ([4]; 15 days, 250 μL in 25 mL sunflower oil (0.83% v/v), vs untreated oil): 82.9%
